Bridge positions count the residues as written; N and C are the ends. Ends that are not written are not given here.

The test system of the assay is isolated rat aortic strips. As to the kind of experiment: Neutralization experiment: contractile response of isolated rat aortic strips to ET-1. The conditions noted are these: synthetic ET-1 alone. As to the method: Contractile responses of rat aortic strips were performed as previously reported (Toda, S., Nakajima, S., Miyazaki, M., Ueda, M.: Vasodilation induced by pinacidil in dogs _ comparison with hydralizine and nifedipine. J. Cardiovasc. Pharmacol. 1985;7:1118-1126). Aortic strips were incubated in an organ bath perfused at 37°C with balanced salt solution containing 139.7 mEq Na⁺, 5.4 mEq K⁺, 2.2 mEq Ca²⁺, 1.0 mEq Mg²⁺, 131.5 mEq Cl⁻ and 20 mEq HCO₃⁻. Purified monoclonal antibody (0.05 µg/ml - 5 µg/ml) was added 3 min before the ET-1 administration.

Turning to “ET-1: endothelin-1, purchased from Peptide Institute Inc.; original form isolated from culture medium of porcine aortic endothelial cells (CSCSSLMDKECVYFCHLDIIW; disulfide 1-15, 3-11; ends not checked; UniProt P05305 53-73, looked up)”, the vasoconstriction entry is reported as “induced a vasoconstriction in isolated rat aortic strips in a dose-dependent manner”.

The values above are taken from patent EP0406628A1, “Monoclonal antibody against endothelin, hybridoma capable of producing the same and radioimmunoassay for endothelin by using the same” (SHIONOGI & CO., LTD., priority 1989, dated 1991).
